Converted amounts (≈) assume the structure as drawn.
How the values were obtained:
Type in all cases: cell-based
[1] = system: Enterococcus faecalis CL5244, VanB; assay: MIC susceptibility test; details: Enterococcus faecalis CL5244, VanB; for MIC: read-out: MIC CL5244
Experimental: (§1) Evaluation of vancomycin analogs is performed using in vitro susceptibility tests and a time-kill assay. [NCCL Standard, 1993] In susceptibility tests, five strains of bacteria, two of the most important: Staphylococcus aureus and Enterococcus faecalis (both susceptible and resistant strains), and Bacillus cereus are chosen and bacteria viability remaining in each well is evaluated using a colorimetric assay based on the tetrazolium salt 3-(4,5-dimethyl-2-thiazolyl)-2,5-diphenyl-2H tetrazolium bromide (MTT) and minimum inhibitory concentration (MIC) values are determined as μg/mL. [Mosmann, T. (1983); Damour, O., et al. (1992); Mikami, Y., et al. (1994)] This assay gives susceptibility information quickly, efficiently, and clearly.
(§2) MICs are determined by the microdilution method using 96-well microplates. Samples are suspended with Cation Adjusted (20 to 25 mg of Ca^2+/mL and 10 to […] of Mg^2+) Mueller-Hinton broth (Difco Laboratories, Detroit, Mich.) and are two-fold diluted from 5 μg/mL to […] on microplates (12 step dilution). To each well, which contained 100 μL of cell suspension (10^6 CFU/mL), 100 μL of antibiotic solution is added and the plates are incubated at 37° C. for 24 h. 50 μL of MTT solution (1 mg/mL) is added to each well, then the plates are incubated under the same conditions (incubation time; 30 min for Bacillus cereus, Staphylococcus aureus, and Methicillin resistant Staphylococcus aureus; 2 hours for Enterococcus faecalis and Gentamicin, Streptmycin, Vancomycin Enterococcus faecalis). MTT is a yellow tetrazolium salt that is reduced by mitochondrial enzymes in viable cells to an insoluble blue formazan product. MIC values are evaluated by observing the lowest drug concentration to inhibit bacteria growth.

[2] = system: Enterococcus faecium CL5137, VanA; assay: MIC susceptibility test; details: Enterococcus faecium CL5137, VanA; for MIC: read-out: MIC CL5137
[3] = system: gentamicin, streptmycin, vancomycin resistant Enterococcus faecalis (ATCC 51299); assay: microbe, parasite or virus in culture; details: for MIC: Enterococcus faecalis, ATCC51299, read-out: MIC VREF; for MIC VREF: Enterococcus faecalis ATCC51299, vancomycin resistance
Experimental: as §1
(§3) All strains [Bacillus cereus (ATCC® 11778), Staphylococcus aureus (ATCC® 29213), Methicillin resistant Staphylococcus aureus (ATCC® 33591), Enterococcus faecalis (ATCC® 29212), and gentamicin, streptmycin, vancomycin resistant Enterococcus faecalis (ATCC® 51299), are purchased from REMEL (Lenexa, Kans.).
as §2

[4] = system: Bacillus cereus (ATCC 11778); assay: MIC susceptibility test, microdilution with MTT readout; details: for MIC: Bacillus cereus, ATCC11778, read-out: MIC BC; for MIC BC: Bacillus ceres ATCC11778
Experimental: as §1, §3, §2

[5] = system: Methicillin resistant Staphylococcus aureus (ATCC 33591); assay: as above; details: Staphylococcus aureus ATCC3359, Methicillin resistance; for MIC: ATCC 3359 / ATCC 33591 / MRSA, read-out: MIC MRSA
Experimental: as §1, §3, §2

[6] = system: Enterococcus faecalis (ATCC 29212); assay: as above; details: Enterococcus faecalis ATCC29212; for MIC: read-out: MIC EF
Experimental: as §1, §3, §2

[7] = system: Staphylococcus aureus (ATCC 29213); assay: as above; details: Staphylococcus aureus ATCC29213; for MIC: read-out: MIC SA
Experimental: as §1, §3, §2

SMILES | MIC [1] [µg/mL] | MIC [2] [µg/mL] | MIC [3] [µg/mL] | MIC [4] [µg/mL] | MIC [5] [µg/mL] | MIC [6] [µg/mL] | MIC [7] [µg/mL] | MIC CL5244 [1] [µg/mL] | MIC CL5137 [2] | MIC VREF [3] [µg/mL] | MIC BC [4] [µg/mL] | MIC MRSA [5] [µg/mL] | MIC EF [6] [µg/mL] | MIC SA [7] [µg/mL]
CN[C@@H](CC(C)C)C(=O)N[C@H]1C(=O)N[C@@H](CC(N)=O)C(=O)N[C@H]2C(=O)NC3C(=O)N[C@H](C(=O)N[C@@H](C(=O)O)c4cc(O)cc(O)c4-c4cc3ccc4O)[C@H](O)c3ccc(c(Cl)c3)Oc3cc2cc(c3OC2OC(CSc3nc(-c4ccccc4)c(-c4ccccc4)o3)C(O)C(O)C2OC2CC(C)(NCc3ccc(-c4ccc(Cl)cc4)cc3)C(O)C(C)O2)Oc2ccc(cc2Cl)[C@H]1O (stereo partly drawn) [LXXXVII, N-4-(4-Chlorophenyl)benzylvancosamine-glucose-C6-2-thio-4,5-diphenyloxazole Vancomycin] | 10 (≈ 5.3 µM) | 50 (≈ 26.5 µM) | 5 (≈ 2.65 µM) | > 5 | > 5 | 5 (≈ 2.65 µM) | > 5 | – | – | – | – | – | – | –
CN[C@@H](CC(C)C)C(=O)N[C@H]1C(=O)N[C@@H](CC(N)=O)C(=O)N[C@H]2C(=O)NC3C(=O)N[C@H](C(=O)N[C@@H](C(=O)O)c4cc(O)cc(O)c4-c4cc3ccc4O)[C@H](O)c3ccc(c(Cl)c3)Oc3cc2cc(c3OC2OC(CN=[N+]=[N-])C(O)C(O)C2OC2CC(C)(NCc3ccc(-c4ccc(Cl)cc4)cc3)C(O)C(C)O2)Oc2ccc(cc2Cl)[C@H]1O (stereo partly drawn) [LXXIV, N-4-(4-Chlorophenyl)benzylvancosamine-glucose-C6-azide Vancomycin] | 0.3 (≈ 0.179 µM) | 13 (≈ 7.76 µM) | 0.16 (≈ 0.0955 µM) | 0.32 (≈ 0.191 µM) | 0.48 (≈ 0.287 µM) | 0.16 (≈ 0.0955 µM) | 1 (≈ 0.597 µM) | – | – | – | – | – | – | –
CN[C@@H](CC(C)C)C(=O)N[C@H]1C(=O)N[C@@H](CC(N)=O)C(=O)N[C@H]2C(=O)NC3C(=O)N[C@H](C(=O)N[C@@H](C(=O)O)c4cc(O)cc(O)c4-c4cc3ccc4O)[C@H](O)c3ccc(c(Cl)c3)Oc3cc2cc(c3OC2OC(CSc3nccc(C(F)(F)F)n3)C(O)C(O)C2OC2CC(C)(N)C(O)C(C)O2)Oc2ccc(cc2Cl)[C@H]1O (stereo partly drawn) [LX] | > 50 | > 50 | 2.5 (≈ 1.55 µM) | 5 (≈ 3.1 µM) | 5 (≈ 3.1 µM) | 2.5 (≈ 1.55 µM) | 5 (≈ 3.1 µM) | – | – | – | – | – | – | –
CNC(CC(C)C)C(=O)NC1C(=O)NC(CC(N)=O)C(=O)NC2C(=O)NC3C(=O)NC(C(=O)NC(C(=O)O)c4cc(O)cc(O)c4-c4cc3ccc4O)C(O)c3ccc(c(Cl)c3)Oc3cc2cc(c3OC2OC(CNC(=O)c3ccc(-c4ccc(Cl)cc4)cc3)C(O)C(O)C2OC2CC(C)(N)C(O)C(C)O2)Oc2ccc(cc2Cl)C1O (stereo not drawn) [XXXVIII, Glucose-C6-N-4-(4-chlorophenyl)benzoyl Vancomycin] | – | – | – | – | – | – | – | 0.4 (≈ 0.241 µM) | 50< μg/mL | 0.16 (≈ 0.0962 µM) | 0.32 (≈ 0.192 µM) | 0.63 (≈ 0.379 µM) | 0.32 (≈ 0.192 µM) | 1.0 (≈ 0.601 µM)
CNC(CC(C)C)C(=O)NC1C(=O)NC(CC(N)=O)C(=O)NC2C(=O)NC3C(=O)NC(C(=O)NC(C(=O)O)c4cc(O)cc(O)c4-c4cc3ccc4O)C(O)c3ccc(c(Cl)c3)Oc3cc2cc(c3OC2OC(Cn3ccnc3)C(O)C(O)C2OC2CC(C)(N)C(O)C(C)O2)Oc2ccc(cc2Cl)C1O (stereo not drawn) [LVII, Glucose-C6-imidazole Vancomycin] | – | – | – | – | – | – | – | 50 (≈ 33.3 µM) | 50< μg/mL | 5.0 (≈ 3.33 µM) | 2.5 (≈ 1.67 µM) | 1.9 (≈ 1.27 µM) | 2.5 (≈ 1.67 µM) | 1.3 (≈ 0.867 µM)
C=C1N[C@@H]2C(=O)N[C@@H](C(=O)O)c3cc(O)cc(O)c3-c3cc(ccc3O)C1NC(=O)[C@@H]1NC(=O)[C@H](CC(N)=O)NC(=O)[C@H](NC(=O)[C@H](CC(C)C)NC)[C@H](O)c3ccc(c(Cl)c3)Oc3cc1cc(c3OC1OC(CSc3nc(-c4ccccc4)c(-c4ccccc4)o3)C(O)C(O)C1OC1CC(C)(N)C(O)C(C)O1)Oc1ccc(cc1Cl)[C@H]2O (stereo partly drawn) [LXIX, Glucose-C6-2-thio-4,5-diphenyloxazole Vancomycin] | 0.6 (≈ 0.357 µM) | 50 (≈ 29.7 µM) | 0.32 (≈ 0.19 µM) | 1.3 (≈ 0.773 µM) | 2.5 (≈ 1.49 µM) | 0.24 (≈ 0.143 µM) | 1.9 (≈ 1.13 µM) | – | – | – | – | – | – | –
CN[C@@H](CC(C)C)C(=O)N[C@H]1C(=O)N[C@@H](CC(N)=O)C(=O)N[C@H]2C(=O)NC3C(=O)N[C@H](C(=O)N[C@@H](C(=O)O)c4cc(O)cc(O)c4-c4cc3ccc4O)[C@H](O)c3ccc(c(Cl)c3)Oc3cc2cc(c3OC2OC(CSc3nnc(N)s3)C(O)C(O)C2OC2CC(C)(N)C(O)C(C)O2)Oc2ccc(cc2Cl)[C@H]1O (stereo partly drawn) [LXXVI, Glucose-C6-2-thio-5-amino-1,3,4-thiadiazole Vancomycin] | 19 (≈ 12.1 µM) | > 50 | > 5 | 0.63 (≈ 0.403 µM) | 0.63 (≈ 0.403 µM) | 1.3 (≈ 0.831 µM) | 0.63 (≈ 0.403 µM) | – | – | – | – | – | – | –
CN[C@@H](CC(C)C)C(=O)N[C@H]1C(=O)N[C@@H](CC(N)=O)C(=O)N[C@H]2C(=O)NC3C(=O)N[C@H](C(=O)N[C@@H](C(=O)O)c4cc(O)cc(O)c4-c4cc3ccc4O)[C@H](O)c3ccc(c(Cl)c3)Oc3cc2cc(c3OC2OC(CN=[N+]=[N-])C(O)C(O)C2OC2CC(C)(N)C(O)C(C)O2)Oc2ccc(cc2Cl)[C@H]1O (stereo partly drawn) [XLVI, Glucose-C6-azide Vancomycin] | 25 (≈ 17 µM) | > 50 | 2.5 (≈ 1.7 µM) | 1 (≈ 0.678 µM) | 1.3 (≈ 0.882 µM) | 1.3 (≈ 0.882 µM) | 0.63 (≈ 0.427 µM) | – | – | – | – | – | – | –
CN[C@@H](CC(C)C)C(=O)N[C@H]1C(=O)N[C@@H](CC(N)=O)C(=O)N[C@H]2C(=O)NC3C(=O)N[C@H](C(=O)N[C@@H](C(=O)O)c4cc(O)cc(O)c4-c4cc3ccc4O)[C@H](O)c3ccc(c(Cl)c3)Oc3cc2cc(c3OC2OC(CSc3nc(C)cc(O)n3)C(O)C(O)C2OC2CC(C)(NCc3ccc(-c4ccc(Cl)cc4)cc3)C(O)C(C)O2)Oc2ccc(cc2Cl)[C@H]1O (stereo partly drawn) [LXXXV, N-4-(4-Chlorophenyl)benzylvancosamine-glucose-C6-2-thio-4-hydroxy-6-methylpyrimidine Vancomycin] | 0.4 (≈ 0.225 µM) | 6.3 (≈ 3.55 µM) | 0.32 (≈ 0.18 µM) | 1.3 (≈ 0.733 µM) | 1.3 (≈ 0.733 µM) | 0.32 (≈ 0.18 µM) | 1.9 (≈ 1.07 µM) | – | – | – | – | – | – | –
CN[C@@H](CC(C)C)C(=O)N[C@H]1C(=O)N[C@@H](CC(N)=O)C(=O)N[C@H]2C(=O)NC3C(=O)N[C@H](C(=O)N[C@@H](C(=O)O)c4cc(O)cc(O)c4-c4cc3ccc4O)[C@H](O)c3ccc(c(Cl)c3)Oc3cc2cc(c3OC2OC(CSc3nc(N)cc(N)n3)C(O)C(O)C2OC2CC(C)(N)C(O)C(C)O2)Oc2ccc(cc2Cl)[C@H]1O (stereo partly drawn) [LXII, Glucose-C6-6-thio-2,4-diaminopyrimidine Vancomycin] | 6.3 (≈ 4 µM) | > 50 | 1.3 (≈ 0.826 µM) | 0.63 (≈ 0.4 µM) | 2.5 (≈ 1.59 µM) | 1.3 (≈ 0.826 µM) | 1.9 (≈ 1.21 µM) | – | – | – | – | – | – | –
CNC(CC(C)C)C(=O)NC1C(=O)NC(CC(N)=O)C(=O)NC2C(=O)NC3C(=O)NC(C(=O)NC(C(=O)O)c4cc(O)cc(O)c4-c4cc3ccc4O)C(O)c3ccc(c(Cl)c3)Oc3cc2cc(c3OC2OC(CO)C(O)C(O)C2OC2CC(C)(NCc3ccc(-c4ccc(Cl)cc4)cc3)C(O)C(C)O2)Oc2ccc(cc2Cl)C1O (stereo not drawn) [N-4-(4-chlorophenyl)benzyl vancomycin, reference compound] | – | – | – | – | – | – | – | 0.4 (≈ 0.242 µM) | 13 µg/mL (≈ 7.88 µM) | 0.08 (≈ 0.0485 µM) | 0.08 (≈ 0.0485 µM) | 0.08 (≈ 0.0485 µM) | 0.08 (≈ 0.0485 µM) | 0.16 (≈ 0.097 µM)
CN[C@@H](CC(C)C)C(=O)N[C@H]1C(=O)N[C@@H](CC(N)=O)C(=O)N[C@H]2C(=O)NC3C(=O)N[C@H](C(=O)N[C@@H](C(=O)O)c4cc(O)cc(O)c4-c4cc3ccc4O)[C@H](O)c3ccc(c(Cl)c3)Oc3cc2cc(c3OC2OC(CSc3nnnn3C)C(O)C(O)C2OC2CC(C)(N)C(O)C(C)O2)Oc2ccc(cc2Cl)[C@H]1O (stereo partly drawn) [LVIII, Glucose-C6-5-thio-1-methyl-tetrazole Vancomycin] | 50 (≈ 32.3 µM) | > 50 | 5 (≈ 3.23 µM) | 1.3 (≈ 0.84 µM) | 2.5 (≈ 1.62 µM) | 2.5 (≈ 1.62 µM) | 1.9 (≈ 1.23 µM) | – | – | – | – | – | – | –
